pEC50, pIC50: −log10 of the molar value. Counter-ions that a name gives are not always drawn.
Assays:
[1] = tested on: Human Thrombocytes; assay: Fibrinogen Binding to Human Thrombocytes (I125-fibrinogen, gel-filtered platelets); conditions: inhibition of I125-fibrinogen binding to gel-filtered human platelets, ADP, 20 minutes, ambient temperature; read-out: Fibrinogen Binding test IC50
Description: 1. Fibrinogen Binding to Human Thrombocytes Blood obtained by puncture of an antecubital vein was anticoagulated with trisodium citrate (final concentration: 13 mM) and centrifuged for 10 minutes at 170 *g. The supernatant platelet-rich plasma was placed on a Sepharose 2B column (Pharmacia) and eluted with a solution of 90 mM common salt, 14 mM trisodium citrate, 5 mM glucose and 50 mM tris(hydroxymethyl)aminomethane, adjusted to pH 7.4. The gel-filtered platelets (GFP) appearing in front of the plasma proteins were used for the binding tests. 50 μl of a 60 mM calcium chloride solution, 50 μl of a 0.6 mM adenosine diphosphate solution, 100 μl of substance solution or solvent and 50 μl of fibrinogen solution (containing 3 μg I125-fibrinogen) were added to 750 μl of GFP and incubated for 20 minutes at ambient temperature. The non-specific binding was measured in the presence of 3 mg/ml of cold fibrinogen. 900 μl of the incubate were carefully pipetted onto 250 μl of silicon oil (AP 38: AR 20, 1:2 v/v, Wacker Chemie) in Eppendorf vessels and centrifuged for 2 minutes at 10,000 *g. The aqueous supernatant and some of the oil were removed, the tip of the vessel with the platelet pellet was cut off and the quantity of bound fibrinogen was measured in a gamma-counter. The concentration of substance which inhibited fibrinogen binding by 50% was calculated from a series of concentrations and given as the IC50.

[2] = tested on: thrombocyte aggregation in platelet-rich plasma; assay: Antithrombotic effect: collagen-induced thrombocyte aggregation in platelet-rich plasma (Born and Cross); type: cell-based; conditions: human platelet-rich plasma, 10 minutes preincubation at 37° C., read-out: Inhibition of platelet aggregation EC50
Description: 2. Antithrombotic Effect Method: The thrombocyte aggregation was measured in platelet-rich plasma from healthy test subjects using the Born and Cross method (J. Physiol. 170: 397 (1964)). In order to inhibit coaggulation the blood was mixed with 3.14% sodium citrate in a ratio by volume of 1:10. Collagen-induced aggregation: The decrease in the optical density of the platelet suspension was measured photometrically and recorded after the addition of the aggregation-initiating substance. The speed of aggregation was concluded from the angle of inclination of the density curve. The point on the curve at which there was maximum transmittance was used to calculate the optical density. The quantity of collagen used was as little as possible but sufficient to give an irreversible reaction curve. Standard commercial collagen produced by Hormonchemie of Munich was used. Before the addition of collagen the plasma was incubated with the substance for 10 minutes at 37° C. From the measurements obtained, an EC50 was determined graphically, relating to a 50% change in the optical density in terms of inhibiting aggregation.

| SMILES | pIC50 [1] | pEC50 [2] |
| --- | --- | --- |
| N=C(N)c1ccc(N2CCCN(c3ccc(CCC(=O)O)cc3)C2=O)cc1 [1(7), 1-(4-amidino-phenyl)-3-[4-(2-carboxy-ethyl)-phenyl]-3,4,5,6-tetrahydro-1H-pyrimidin-2-one] | 5.62 | 5.00 |
| N=C(N)c1ccc(-c2ccc(N3CCN(CC(=O)O)C3=O)cc2)cc1 [Example 1, 1-(4'-Amidino-4-biphenylyl)-3-carboxymethyl-imidazolidin-2-one] | 5.74 | 5.00 |
| CCc1nn(-c2ccc(C(=N)N)cc2)c(=O)n1-c1ccc(CCC(=O)OC)cc1 [2(119), 2-(4-amidino-phenyl)-5-ethyl-4-[4-(2-methoxycarbonyl-ethyl)-phenyl]-4H-1,2,4-triazol-3-one hydrochloride] | 6.55 | 7.40 |
| N=C(N)c1ccc(-c2ccc(C3CN(CCC(=O)O)C(=O)N3c3ccccc3)cc2)cc1 (stereo not drawn) [4(13), 4-(4'-amidino-4-biphenylyl)-1-(2-carboxy-ethyl)-3-phenyl-imidazolidin-2-one hydrochloride] | 7.49 | 6.51 |
| N=C(N)c1ccc(N2CCN(c3ccc(S(=O)(=O)CC(=O)O)cc3)C2=O)cc1 [1(50), 1-(4-amidino-phenyl)-3-(4-carboxymethylsulphonylphenyl)-imidazolidin-2-one] | 7.35 | 6.54 |
| CN1C(=O)N(CCC(=O)O)CC1c1ccc(-c2ccc(C(=N)N)cc2)cc1 (stereo not drawn) [4(14), 4-(4'-amidino-4-biphenylyl)-1-(2-carboxy-ethyl)-3-methyl-imidazolidin-2-one hydrochloride] | 7.39 | 6.70 |
| COC(=O)CCc1ccc(N2CCN(c3ccc(CN)cc3)C2=O)cc1 [8(2), 1-(4-aminomethyl-phenyl)-3-[4-(2-methoxycarbonyl-ethyl)-phenyl]-imidazolidin-2-one hydrochloride] | 6.35 | 6.43 |
| N=C(N)c1ccc(N2CCN(c3ccc(SCC(=O)O)cc3)C2=O)cc1 [1(48), 1-(4-amidino-phenyl)-3-(4-carboxymethylthiophenyl)-imidazolidin-2-one] | 6.68 | 5.96 |
| COC(=O)CN1CCCN(c2ccc(-c3ccc(C(=N)N)cc3)cc2)C1=O [2(5), 1-(4'-amidino-4-biphenylyl)-3-methoxycarbonylmethyl-3,4,5,6-tetrahydro-1H-pyrimidin-2-one hydrochloride] | 5.25 | 4.60 |
| CCOC(=O)CCN1CCCN(c2ccc(-c3ccc(C(=N)N)cc3)cc2)C1=O [2(4), 1-(4'-amidino-4-biphenylyl)-3-(2-ethoxycarbonyl-ethyl)-3,4,5,6-tetrahydro-1H-pyrimidin-2-one hydrochloride] | 4.82 | 4.38 |
| COC(=O)CCN1CC(c2ccc(-c3ccc(C(=N)N)cc3)cc2)N(c2ccccc2)C1=O (stereo not drawn) [4(9), 4-(4'-amidino-4-biphenylyl)-1-(2-methoxycarbonyl-ethyl)-3-phenyl-imidazolidin-2-one hydrochloride] | 5.59 | 5.02 |

Further lines, results first:

| pIC50 [1] | pEC50 [2] | SMILES |
| --- | --- | --- |
| 5.24 | 6.16 | COC(=O)CCN1CCN(c2ccc(-c3ccc(C(=N)N)cc3)cc2)S1(=O)=O [2(20), 2-(4'-amidino-4-biphenylyl)-5-(2-methoxycarbonyl-ethyl)-3,4-dihydro-2H,5H-1,2,5-thiadiazole-1,1-dioxide hydrochloride] |
| 7.68 | 7.52 | CCc1nn(-c2ccc(C(=N)N)cc2)c(=O)n1-c1ccc(CCC(=O)O)cc1 [1(140), 2-(4-amidino-phenyl)-4-[4-(2-carboxy-ethyl)-phenyl]-5-ethyl-4H-1,2,4-triazol-3-one] |
| 6.82 | 6.46 | NCc1ccc(N2CCN(c3ccc(CCC(=O)O)cc3)C2=O)cc1 [1(59)] |
| 8.19 | 7.30 | N=C(N)c1ccc(-n2cnn(-c3ccc(CCC(=O)O)cc3)c2=O)cc1 [1(146), 4-(4-amidino-phenyl)-2-[4-(2-carboxy-ethyl)-phenyl]-4H-1,2,4-triazol-3-one] |
| 4.72 | 5.82 | COC(=O)CCc1ccc(-n2cc(-c3ccc(C(=N)N)cc3)n(C)c2=O)cc1 [2(81), 4-(4-amidino-phenyl)-1-[4-(2-methoxycarbonyl-ethyl)-phenyl]-3-methyl-3H-imidazol-2-one hydrochloride] |
| 6.33 | 5.96 | N=C(N)c1ccc(N2CCC(N3CCN(CCC(=O)O)C3=O)CC2)cc1 [1(24), 1-[1-(4-amidino-phenyl)-4-piperidinyl]-3-(2-carboxy-ethyl)-imidazolidin-2-one] |
| < 5.00 | 4.62 | COC(=O)CCc1ccc(N2C(=O)CN(c3ccc(C(=N)NC(=O)OC)cc3)C2=O)cc1 [5(13), 1-(4-methoxycarbonylamidino-phenyl)-3-[4-(2-methoxycarbonyl-ethyl)-phenyl]-imidazolidin-2,4-dione] |
| 4.77 | 4.54 | N=C(N)c1ccc(N2CCN(CCNCC(=O)O)C2=O)cc1 [1(82), 1-(4-amidino-phenyl)-3-(2-carboxymethylaminoethyl)-imidazolidin-2-one] |
| 4.55 | 5.96 | COC(=O)CCn1cc(-c2ccc(-c3ccc(C(=N)N)cc3)cc2)n(C)c1=O [2(105), 4-(4'-amidino-4-biphenylyl)-1-(2-methoxycarbonyl-ethyl)-3-methyl-3H-imidazol-2-one hydrochloride] |
| 6.77 | 6.34 | Cn1c(-c2ccc(-c3ccc(C(=N)N)cc3)cc2)cn(CCC(=O)O)c1=O [1(118), 4-(4'-amidino-4-biphenylyl)-1-(2-carboxy-ethyl)-3-methyl-3H-imidazol-2-onehydrochloride] |
| 6.77 | 6.43 | COC(=O)CCc1ccc(N2CCN(c3ccc4c(c3)CCC4N)C2=O)cc1 (stereo not drawn) [31(1), 1-(1-amino-5-indanyl)-3-[4-(2-methoxycarbonyl-ethyl)-phenyl]-imidazolidin-2-one hydrochloride] |
| 5.41 | < 4.00 | N=C(N)c1ccc(-c2ccc(N3CCCN(CCC(=O)O)C3=O)cc2)cc1 [1(4), 1-(4'-amidino-4-biphenylyl)-3-(2-carboxy-ethyl)-3,4,5,6-tetrahydro-1H-pyrimidin-2-one] |
| 5.21 | 4.49 | N=C(N)c1ccc(-c2ccc(N3CCCN(CC(=O)O)C3=O)cc2)cc1 [1(5), 1-(4'-amidino-4-biphenylyl)-3-carboxymethyl-3,4,5,6-tetrahydro-1H-pyrimidin-2-one] |
| 4.74 | 5.51 | CCOC(=O)CCn1ccn(-c2ccc(-c3ccc(C(=N)N)cc3)cc2)c1=O [2(3), 1-(4'-amidino-4-biphenylyl)-3-(2-ethoxycarbonyl-ethyl)-3H-imidazol-2-one h ydrochloride] |
| 7.32 | 6.68 | N=C(N)c1ccc(N2CCN(c3ccc(CC(N)C(=O)O)cc3)C2=O)cc1 (stereo not drawn) [4(18), 1-(4-amidino-phenyl)-3-[4-(2-amino-2-carboxy-ethyl)-phenyl]-imidazolidin-2-one] |
| 5.70 | 7.15 | COC(=O)CCc1ccc(-n2c(C)nn(-c3ccc(C(=N)N)cc3)c2=O)cc1 [2(118), 2-(4-amidino-phenyl)-4-[4-(2-methoxycarbonyl-ethyl)-phenyl]-5-methyl-4H-1,2,4-triazol-3-one hydrochloride] |

Source: patent US5276049A, “Cyclic urea derivatives, pharmaceutical compositions containing these compounds and methods of using the same” (Dr. Karl Thomae GmbH, priority 1991, dated 1994)
